Results reported in patent US20070202192A1, “Fungical Mixtures For Controlling Rice Pathogens” (BASF AKTIENGESELLSCHAFT, priority 2003, published 2007).
Structures can show the parent of a compound that is named as a salt.

Test system: Cochliobolus miyabeanus
Assay: activity against brown spot of rice caused by Cochliobolus miyabeanus, protective application
Assay type: in vivo
Conditions: rice seedlings cultivar Tai-Nong 67, protective application, 6 days after inoculation
Method: 1% by weight of the emulsifier Uniperol® EL (wetting agent having emulsifying and dispersant action based on ethoxylated alkylphenols) was added to this solution, and the mixture was diluted with water to the desired concentration.
Use example—activity against brown spot of rice caused by Cochliobolus miyabeanus, protective application […]
The next day, the plants were inoculated with an aqueous spore suspension of Cochliobolus miyabeanus. The test plants were then placed in climatized chambers at 22-24° C. and 95-99% relative atmospheric humidity for 6 days. The extent of the development of the infection on the leaves was then determined visually.
Evaluation was carried out by determining the percentage of infected leaf area. These percentages were converted into efficacies.
The efficacy (E) is calculated as follows using Abbot's formula: E=(1−α/β)·100 α corresponds to the fungicidal infection of the treated plants in % and β corresponds to the fungicidal infection of the untreated (control) plants in % An efficacy of 0 means that the infection level of the treated plants corresponds to that of the untreated control plants; an efficacy of 100 means that the treated plants are not infected.

With CCO[PH](=O)O [IIb (fosetyl-Al), ethyl phosphonate aluminum salt] the “Efficacy in % of the untreated control” value (1 ppm active compound in the spray liquor) was 0% and the “Efficacy in % of the untreated control” value (16 ppm active compound in the spray liquor) was 0%.

With CC1CCN(c2c(-c3c(F)cc(F)cc3F)c(Cl)nc3ncnn23)CC1 [I, 5-chloro-7-(4-methylpiperidin-1-yl)-6-(2,4,6-trifluorophenyl)-[1,2,4]triazolo[1,5-a]pyrimidine] the “Efficacy in % of the untreated control” value (4 ppm active compound in the spray liquor) was 33%.
